{"source": "patent US7183320B2", "about": "“Benzoylsulfonamides and sulfonylbenzamidines for use as antitumour agents” (Eli Lilly and Company, priority 2002, dated 2007)", "key": {"[1]": {"test_system": "MURINE COLON CARCINOMA-26", "test": "Early stage murine colon carcinoma-26 (Table X)", "type": "in vivo", "details": "Balb/C female mice", "description": "(§1) Conventional Murine Tumor and Human Tumor Xenouraft Assays\nBriefly, the murine tumor or human xenograph was implanted subcutaneously using either 12-gauge trocar implants or counted number of cells. The location for the trocar insertion is midway between the axillary and inguinal region along the side of the mouse. The trocar is slipped approximately ¾ of an inch subcutaneously up toward the axilla before discharging the tumor fragment, and pinching the skin as the trocar is removed., Alternatively, human tumor cells prepared from a […] of donor tumors (5×10^6 cells) were implanted subcutaneously in a hind-leg of a male or female nude mouse (Charles River). Either a test compound in vehicle or vehicle alone was administered by intravenous bolus injection (iv), intraperitoneal injection (ip), or oral gavage (po). Each treatment group, as well as a group of untreated control animals, consisted of five animals per group in each experiment. […] Body weights were taken as a general measure of toxicity. The subcutaneous tumor data were analyzed by determining the median tumor weight for each treatment group over the course of the experiment and calculating the tumor growth delay as the difference in days for the treatment versus the control tumors to reach a volume of either 500 or 1000 mm^3.\n(§2) The parameters measured in each experiment are summarized in the following paragraphs. • Tumor Weight(mg)=(a×b^2)/2 where a=tumor length (mm) and b=tumor width (mm). • Tumor Growth Delay=T−C where T is the median time (days) required for the treatment group tumors to reach a predetermined size, and C is the median time (days) for the control group tumors to reach the same size. Tumor-free survivors are excluded from this calculation, and are tabulated separately (Tumor Free).\nThe median tumor weight of each group is determined (including zeros). The T/C value in percent is an indication of antitumor effectiveness."}, "[2]": {"test_system": "HUMAN COLON ADENOCARCINOMA-HCT116", "test": "Early stage human colon adenocarcinoma HCT116 xenograft (Table IV)", "type": "in vivo", "details": "Balb/C SCID female mice", "description": "as §1\nInhibition of tumors transplanted into mice is an accepted procedure for studying the efficacy of antitumor agents (Corbett, et al., In vivo Methods for Screening and Preclinical Testing; Use of rodent solid tumors for drug discovery., In: Anticancer Drug Development Guide: Preclinical Screening, Clinical Trials, and Approval, B. Teicher (ed), Humana Press Inc., Totowa, N.J., Chapter 5, pages 75–99 (1997); (Corbett, et al., Int., J. Parmacog., 33, Supplement, 102–122 (1995)). Murine tumors or human xenographs were implanted essentially as described by Corbett in In vivo Methods for Screening and Preclimical Testing; Use of rodent solid tumors for drug discovery. Briefly, the murine tumor or human xenograph was implanted subcutaneously using either 12-gauge trocar implants or counted number of cells. The location for the trocar insertion is midway between the axillary and inguinal region along the side of the mouse. The trocar is slipped approximately ¾ of an inch subcutaneously up toward the axilla before discharging the tumor fragment, and pinching the skin as the trocar is removed., Alternatively, human tumor cells prepared from a […] of donor tumors (5×10^6 cells) were implanted subcutaneously in a hind-leg of a male or female nude mouse (Charles River). Either a test compound in vehicle or vehicle alone was administered by intravenous bolus injection (iv), intraperitoneal injection (ip), or oral gavage (po). Each treatment group, as well as a group of untreated control animals, consisted of five animals per group in each experiment. Subcutaneous tumor response was monitored by tumor volume measurement performed twice each week over the course of the experiment (60–120 days). Body weights were taken as a general measure of toxicity. The subcutaneous tumor data were analyzed by determining the median tumor weight for each treatment group over the course of the experiment and calculating the tumor growth delay as the difference in days for the treatment versus the control tumors to reach a volume of either 500 or 1000 mm^3.\nas §2, with “The compound of Example 110 was tested against a variety of murine and human tumors substantially as described supra. The” for “The”\n[formula] • where Tumor Growth Delay is as previously defined and Td is tumor volume doubling time (days), estimated from the best fit straight line from a log-linear growth plot of the control group of tumors in exponential growth (100–800 mg range) • % T/C mass—The treatment and control groups are measured when the control group tumors reach approximately 700 to 1200 mg in size (median group). The median tumor weight of each group is determined (including zeros). The T/C value in percent is an indication of antitumor effectiveness. A T/C≦42% is considered significant antitumor activity. A T/C<10% is considered to indicate highly significant antitumor activity. • Body Weight Loss Nadir—A body weight loss nadir (mean of group) of greater than 20% or drug deaths greater than 20% are considered to indicate an excessively toxic dosage in single course trials. • Activity Rating—the Activity Rating is derived from the Log Kill according to the following table: […]"}, "[3]": {"details": "total dose 1305 mg/kg: 145 mg/kg/injection IV on days 1, 3, 5, 7, 9, 13, 15, 17, and 19"}, "[4]": {"details": "total dose 1600 mg/kg: 100 mg/kg/injection IV BID on days 1, 3, 5, 7, 13, 15, 17, and 21"}, "[5]": {"details": "total dose 1740 mg/kg: 145 mg/kg/injection IV on days 1, 2, 3, 7, 8, 13, 14, 16, 18, and 20–22"}, "[6]": {"details": "total dose 280 mg/kg: 70 mg/kg/injection IV on days 3, 4, 5, and 9"}, "[7]": {"details": "total dose 560 mg/kg: 140 mg/kg/injection IV on days 3, 4, 5, and 9"}}, "data": [{"smiles": "O=C(NS(=O)(=O)c1ccccc1)c1ccc(Cl)cc1Cl", "note": "[Example 110, N-[2,4-dichlorobenzoyl]phenylsulfonamide]", "values": [{"measurement": "% BODY WT LOSS AT NADIR", "setting": "[1]; [3]", "value": "+15%"}, {"measurement": "% T/C MASS", "setting": "[1]; [3]", "value": 28, "unit": "%"}, {"measurement": "ACTIVITY RATING", "setting": "[1]; [3]", "value": "+ (0.7–1.2)"}, {"measurement": "DRUG DEATHS", "setting": "[1]; [3]", "value": "0/5"}, {"measurement": "GROWTH DELAY", "setting": "[1]; [3]", "value": 6, "unit": "days"}, {"measurement": "LOG KILL", "setting": "[1]; [3]", "value": 0.9}, {"measurement": "TUMOR FREE AT DAY 31", "setting": "[1]; [3]", "value": "0/5"}, {"measurement": "% BODY WT LOSS AT NADIR", "setting": "[1]; [4]", "value": "+15%"}, {"measurement": "% T/C MASS", "setting": "[1]; [4]", "value": 34, "unit": "%"}, {"measurement": "ACTIVITY RATING", "setting": "[1]; [4]", "value": "+++ (2.0–2.8)"}, {"measurement": "DRUG DEATHS", "setting": "[1]; [4]", "value": "0/5"}, {"measurement": "GROWTH DELAY", "setting": "[1]; [4]", "value": 15, "unit": "days"}, {"measurement": "LOG KILL", "setting": "[1]; [4]", "value": 2.2}, {"measurement": "TUMOR FREE AT DAY 31", "setting": "[1]; [4]", "value": "0/5"}, {"measurement": "% BODY WT LOSS AT NADIR", "setting": "[1]; [5]", "value": "+17%"}, {"measurement": "% T/C MASS", "setting": "[1]; [5]", "value": 34, "unit": "%"}, {"measurement": "ACTIVITY RATING", "setting": "[1]; [5]", "value": "+++ (2.0–2.8)"}, {"measurement": "DRUG DEATHS", "setting": "[1]; [5]", "value": "0/5"}, {"measurement": "GROWTH DELAY", "setting": "[1]; [5]", "value": 14, "unit": "days"}, {"measurement": "LOG KILL", "setting": "[1]; [5]", "value": 2.1}, {"measurement": "TUMOR FREE AT DAY 31", "setting": "[1]; [5]", "value": "0/5"}, {"measurement": "% BODY WT LOSS AT NADIR", "setting": "[2]; [6]", "value": 0, "unit": "%"}, {"measurement": "% T/C MASS", "setting": "[2]; [6]", "value": 0, "unit": "%"}, {"measurement": "ACTIVITY RATING", "setting": "[2]; [6]", "value": "++++ (HIGHLY ACTIVE >2.8)"}, {"measurement": "DRUG DEATHS", "setting": "[2]; [6]", "value": "0/5"}, {"measurement": "GROWTH DELAY", "setting": "[2]; [6]", "value": 28, "unit": "days"}, {"measurement": "LOG KILL", "setting": "[2]; [6]", "value": 3.4}, {"measurement": "TUMOR FREE AT DAY 115", "setting": "[2]; [6]", "value": "2/5"}, {"measurement": "% BODY WT LOSS AT NADIR", "setting": "[2]; [7]", "value": "−4.0", "unit": "%"}, {"measurement": "% T/C MASS", "setting": "[2]; [7]", "value": 0, "unit": "%"}, {"measurement": "ACTIVITY RATING", "setting": "[2]; [7]", "value": "++++ (HIGHLY ACTIVE >2.8)"}, {"measurement": "DRUG DEATHS", "setting": "[2]; [7]", "value": "0/5"}, {"measurement": "GROWTH DELAY", "setting": "[2]; [7]", "value": 56, "unit": "days"}, {"measurement": "LOG KILL", "setting": "[2]; [7]", "value": 6.7}, {"measurement": "TUMOR FREE AT DAY 115", "setting": "[2]; [7]", "value": "2/5"}]}]}
